Test results as given in US8785483B2, “Methods for treating COPD” (The Board of Regents of the University of Texas System, priority 2010, dated 2014).

What was measured:
[1] = test system: IL-13; test: RWE-induced expression of IL-13 in mouse lung (quantitative RT-PCR); assay type: in vivo; settings: RWE-sensitized and challenged mice, fidarestat 7 mg/kg body wt/day in drinking water, lungs 16 h after challenge
Method: FIG. 8. AR inhibition prevents RWE-induced expression of IL-13 in mouse lung. The mice were sensitized and challenged with PBS or RWE, without or with AR inhibitor and 16 h later lungs were harvested and total RNA was isolated (n=4). One microgram of total RNA from each sample was transcribed into first-strand cDNA and quantitative RT-PCR was conducted using IL-13 specific forward and reverse primers. The levels of RNA for the target sequences were determined by melting curve analysis. The values presented here are fold-change over the control. (**p<0.001). RWE, ragweed pollen extract; ARI, aldose reductase inhibitor. […]
The mice lungs were harvested 16 h after RWE-challenge and total RNA was isolated. From each sample, one microgram of total RNA was transcribed into first-strand cDNA and quantitative RT-PCR was conducted using IL-13 specific forward and reverse primers 5′[…] […] Data were collected and analyzed by ABI 7000 System equipment and software (Applied Biosystems, Foster City, Calif.). […] Values of expression in fold increase (ratio of control) were calculated using the formula for relative expression by the method of Delta Delta CT (ΔΔCT): F=2^−^ΔΔ^C, F=fold change (ratio of control), −ΔΔCT=(CT Target−CTHKG)^Timex−(CT Target-CT HKG)^Time 0. […]

[2] = test system: SAEC; test: IL-13-induced ROS levels (H2DCF-DA fluorescence); assay type: cell-based, human; settings: fidarestat 10 μM overnight, IL-13 25 ng/ml 1 h
Method: FIGS. 3A-3B. Inhibition of AR prevents IL-13-induced reactive oxygen species (ROS) production in SAEC. (A) Approximately 5×10^4 cells were seeded on 2-chambered slides and starved in serum-free basal medium without or with fidarestat overnight. The cells were washed with 1×HBSS and incubated with 10 μM H2DCF-DA at 37° C. for 30 min, washed again and treated with IL-13 (25 ng/ml) for 1 h. The cells were washed with cold 1×HBSS twice and mounted using floursave mounting medium with DAPI. Photomicrographs were acquired using a fluorescence microscope (Nikon). A representative image is shown (n=4); Magnification 400×. (B) Approximately 10,000 SAEC were plated per well in a 96-well plate and serum-starved for 24 h without or with fidarestat. […] At the end of the treatment, cells were washed twice with HBSS and fluorescence was determined at 485 nm excitation and 538 nm emission wavelengths. Relative ROS production is expressed as mean fluorescence intensity (MFI) (arbitrary units). […] The cells on the culture slide were mounted using floursave mounting medium with DAPI after which photomicrographs were acquired using a fluorescence microscope (Nikon). Fluorescence was determined using 485 nm excitation and 538 nm emission wavelengths for cells in 96-well plate and relative ROS production is expressed as mean fluorescence intensity (MFI) (arbitrary units).

SMILES: NC(=O)[C@@H]1C[C@]2(NC(=O)NC2=O)c2cc(F)ccc2O1 [fidarestat, (2S,4S)-2-aminoformyl-6-fluoro-spiro[chroman-4,4′-imidazolidine]-2′,5′-dione]
- RWE-induced increase of IL-13 expression in lung [1]: prevented this increase
- prevention of IL-13-induced increase in ROS levels [2]: 80%
